Patent US9056835B2, “LPA2 receptor-specific benzoic acid derivatives” (University of Tennessee Research Foundation, priority 2012, dated 2015)

Columns and labels:
[1] = target: GPR87 (Homo sapiens, UniProt Q9BY21); assay: LPA receptor-mediated Ca2+ mobilization assay, GPR87; format: cell-based; conditions: for inhibition of GPR87 Ca2+ response: 10 μM, ~EC75 LPA 18:1; for GPR87 Imax (%): inhibition by 10 μM compound of ~EC75 LPA 18:1 Ca2+ response; for EC50: agonist, Ca2+ mobilization
Experimental: Similarity searches were performed separately using each fingerprint to quantitate similarity. Hits meeting the 80% similarity threshold from each search were ranked based on the Tanimoto coefficient measure of similarity to a target molecule NSC12404, and the top 75 unique hits from each fingerprint search were selected for further analysis. The 225 compounds selected for further analysis were clustered based on Tanimoto coefficients calculated using Molecular ACCess System-key fingerprints (MACCS keys) and evaluated using the diversity subset function implemented in MOE. This selected a diverse subset of 27 compounds for biological evaluation by choosing the middle compounds in each cluster. These 27 compounds were tested in Ca^2+ mobilization assays at a concentration of 10 μM using stable cell lines individually expressing LPA2 and also in vector-transfected control cells. Hits activating LPA2 were further tested using cells expressing the other established and putative LPA GPCRs. Experimental testing of the selected compounds identified the three new selective LPA2 agonists: GRI977143, H2L5547924, and H2L5828102. […] They arbitrarily selected GRI977143 for further characterization in cell-based assays.
J Biol Chem (2009) 284(25): 17304-17319). […] The cells were loaded with Fura-2-acetoxymethyl esther (Fura-2/AM) in Krebs buffer containing 0.01% pluronic acid for 30 min and rinsed with Krebs buffer before measuring Ca^2+ mobilization. The ratio of peak emissions at 510 nm after 2 min of ligand addition was determined for excitation wavelengths of 340 nm/380 nm. All samples were run in quadruplicate. […] The half maximally effective concentration (EC50), and inhibitory constant (Ki) values were calculated by fitting a sigmoid function to dose-response data points using KaleidaGraph software (version 4.1, Synergy Software; […]).
Mouse embryonic fibroblast (MEF) cells were isolated from E13.5 LPA1&2 double knockout (DKO) embryos. MEFs were transduced with empty vector or LPA2-containing lentiviruses and selected with 1.5 μg/ml puromycin. Cells were maintained in Dulbecco's modified Eagle medium (DMEM) supplemented with 10% (V/V) fetal bovine serum (FBS), 2 mM L-glutamine, 100 U/mL penicillin, and 100 μg/mL streptomycin. Serum-free medium contained 0.1% (W/V) BSA in DMEM. The rat intestinal epithelial cell line 6 (IEC-6) was obtained from the American Type Culture Collection (Rockville, Md.) at passage 13; passages 16-21 were used in all experiments. IEC-6 cells were maintained in a humidified 37° C. incubator in an atmosphere of 90% air and 10% CO2. Growth medium consisted of DMEM supplemented with 5% heat inactivated FBS, 10 μg/mL insulin, and 50 μg/mL gentamycin. The composition of the serum-starvation medium was the same as that of the full growth medium except that it contained no FBS. The McArdle rat hepatoma cell line (RH7777) stably expressing LPA2 receptors was a gift from Dr. Fumikazu Okajima (Gunma University, Maebashi, Japan). RH7777 cells stably expressing LPA1 or LPA3 receptors were generated in-house and had been characterized earlier. Wild type and LPA receptor (LPAR) stably transfected RH7777 cells were grown in DMEM supplemented with 10% FBS and 2 mM L-glutamine in the presence of 250 μg/ml G418. Chinese hamster ovary (CHO) cells stably expressing either vector or LPA4 receptor were a kind gift from Dr. Takao Shimizu (Tokyo University; Tokyo, Japan). Cells were cultured in Ham's F12 medium containing 10% FBS, 2 mM L-glutamine, and 350 μg/ml G418. Rat neuroblastoma cells (B103) were transduced with the lentivirus harboring wild type of FLAG-LPA5 and selected with puromycin to establish the stable cell lines. The stable cells were maintained in DMEM supplemented with 10% FBS and 0.4 μg/ml puromycin. GPR87- and P2Y10-expressing CHO cells and vector-transfected control cells were a gift from Dr. Norihisha Fujita (Ritsumeikan University; Shiga, Japan). […]

[2] = system: vector- and LPA2-transduced MEF cells; assay: Serum withdrawal-induced apoptosis (caspase activity, DNA fragmentation); format: cell-based, mouse; conditions: for reduction of apoptotic indicators: vector-transduced MEF
Experimental: Experiments were performed on vector- and LPA2-transduced MEF cells. To measure caspase 3, 7, 8, or 9 activity and DNA fragmentation, cells were plated in 48-well plates (2×10^4 cells/well). To detect PARP-1 cleavage and Bax translocation, 1.5×10^6 cells were plated in 10-cm dishes and cultured overnight in full growth medium. The next morning, the growth medium was replaced by serum-starvation medium and cells were pretreated for 1 h with LPA (1-10 μM), OTP (1-10 μM), GRI977143 (1-10 μM), or vehicle. Caspase activity, DNA fragmentation, PARP-1 cleavage, and Bax translocation were measured 5 h after incubation with 1.7 μM Adriamycin or 24 h after serum withdrawal.
Caspase-Glow® 3/7, Caspase-Glow® 8 and Caspase-Glow® 9 reagents were purchased from Promega (Madison, Wis.) and used according to the manufacturer's instructions. Briefly, cells were lysed by adding 50 μl of lysis reagent per well, followed by shaking for 30 min at room temperature. […] lysate were transferred to a 96-well white-wall plate, and luminescence was measured using a BioTek® (Winooski, Vt.) plate reader.
Apoptotically-challenged cells were washed twice with PBS, and a quantitative DNA fragmentation assay was carried out using a Cell Death Detection ELISA PLUS kit (Roche Diagnostics, Penzberg, Germany) and normalized to protein concentration using the BCA Protein Assay Kit (Thermo Fisher Scientific, Inc.; Rockford, Ill.) as described previously (Valentine et al., 2010). Aliquots of nuclei-free cell lysate were placed in streptavidin-coated wells and incubated with anti-histone-biotin antibody and anti-DNA peroxidase-conjugated antibody for 2 h at room temperature. After the incubation, the sample was removed, and the wells were washed and incubated with 100 μl 2,2′-azino-di[3-ethylbenzthiazolin-sulfonate substrate at room temperature before the absorbance was read at 405 nm. Results were expressed as absorbance at 405 nm/min/mg protein as detailed in our previous report (Ray et al., Mdm2 inhibition induces apoptosis in p53 deficient human colon cancer cells by activating p73- and E2F1-mediated expression of PUMA and Siva-1. Apoptosis (2011) 16(1): 35-44).

Sequence of GPR87 (Q9BY21 whole entry): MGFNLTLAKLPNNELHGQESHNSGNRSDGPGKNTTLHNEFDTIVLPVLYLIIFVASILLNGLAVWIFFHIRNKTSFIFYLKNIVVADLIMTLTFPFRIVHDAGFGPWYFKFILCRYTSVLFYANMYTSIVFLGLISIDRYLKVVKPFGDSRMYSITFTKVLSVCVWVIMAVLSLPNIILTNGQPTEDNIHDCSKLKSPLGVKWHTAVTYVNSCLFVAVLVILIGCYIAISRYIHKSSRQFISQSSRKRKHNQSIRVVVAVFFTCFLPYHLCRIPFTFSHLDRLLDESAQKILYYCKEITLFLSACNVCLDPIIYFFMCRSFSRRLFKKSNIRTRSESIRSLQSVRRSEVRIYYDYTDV

Compound	inhibition of GPR87 Ca2+ response [1]	GPR87 Imax (%) [1]	EC50 [1]	DNA fragmentation ([2]; LPA2-transduced MEF, 10 μM)	reduction of caspase 3, 7, 8, and 9 activation ([2]; LPA2-transduced MEF, 10 μM)	reduction of apoptotic indicators [2]
O=C(O)c1cc(Cl)c(Cl)cc1C(=O)Nc1ccc2c(c1)C(=O)c1ccccc1-2 [Compound H2L5547924]	partially inhibited	31%				
O=C(O)c1ccccc1C(=O)Nc1ccc2c(c1)C(=O)c1ccccc1C2=O [Compound H2L5828102]	partially inhibited	21%				
O=C(O)c1ccccc1SCCCN1C(=O)c2cccc3cccc(c23)C1=O [GRI977143]			> 10 µM	attenuated DNA fragmentation	highly effective	failed to cause any reduction
CCCCCCCC/C=C\CCCCCCCC(=O)OC[C@@H](O)COP(=O)(O)O [LPA 18:1, Lysophosphatidic acid (18:1)]			0.049 µM			protected the vector-transduced MEF cells too
O=C(O)c1ccccc1C(=O)Nc1ccc2c(c1)C(=O)c1ccccc1-2 [NSC12404]			> 10 µM			
octadecenyl thiophosphate [OTP]			3 µM			protected the vector-transduced MEF cells too
